Data set [1] deals with Staphylococcus aureus FDA 209P. Nature of the data set: MIC by agar dilution method, Staphylococcus aureus FDA 209P. The class given is cell-based. The settings on record: FDA209P, Trypticase soy agar, about 10^8 CFU/ml, 18 hours at 37° C., read-out: MIC (minimal inhibitory concentration). As for the experimental part:
(§1) Several examples of the compound (I) as obtained in Examples were tested for MIC (mcg/ml) by the following method.
(§2) The MIC of each test compound was determined by the agar dilution method. Thus, 1.0 ml of each aqueous serial dilution of the test compound was poured into a petri dish and then […] of Trypticase soy agar was poured into the dish followed by intimate mixing. The mixed agar plate was smeared with the suspension of a test organism (about 10^8 CFU/ml).
(1) Staphylococcus aureus FDA 209P
Background: In agar dilution the substance is mixed into plates at graded concentrations.

For data set [2], the system named is Escherichia coli 0-111. The data set is described as follows: MIC by agar dilution method, Escherichia coli 0-111. The class given is cell-based. The conditions noted are these: 0111, Trypticase soy agar, about 10^8 CFU/ml, 18 hours at 37° C., read-out: MIC (minimal inhibitory concentration). The protocol: as §1, §2
(2) Escherichia coli 0-111

For data set [3], the system named is Citrobacter freundii IFO 12681. Nature of the data set: MIC by agar dilution method, Citrobacter freundii IFO 12681. The class given is cell-based. The settings on record: IFO12681, Trypticase soy agar, about 10^8 CFU/ml, 18 hours at 37° C., read-out: MIC (minimal inhibitory concentration). The protocol:
as §1, §2
(3) Citrobacter freundii IFO 12681

Data set [4] concerns Klebsiella pneumoniae DT. Nature of the data set: MIC by agar dilution method, Klebsiella pneumoniae DT. The class given is cell-based. The conditions noted are these: Trypticase soy agar, about 10^8 CFU/ml, 18 hours at 37° C., read-out: MIC (minimal inhibitory concentration). The protocol: as §1, §2
(4) Klebsiella pneumoniae DT

The nature of data set [5]: stability against a mouse kidney homogenate. The settings on record: 0.05M phosphate buffer (pH 6.9), 30° C., test compound solution 1 mg/ml mixed 1:1, read-out: Half life (T1/2). The class given is in vitro ADME. The protocol: Several examples of the objective compound (I) as obtained in Examples were tested for stability against a mouse Kidney homogenate by the following method.
A kidney homogenate was prepared by grinding down 50 g of the mouse kidney in 200 ml of cooled 0.05M phosphate buffer (pH 6.9) and stored at -20° C. A 200 μl portion of this mouse kidney homogenate and 200 μl of an aqueous solution of the test compound (1 mg/ml) were intimately mixed and kept at 30° C. At 10-minute intervals, a 25 μl portion of the mixture was taken and added to 25 μl of ice bath-cooled methanol to thereby terminate the reaction between renal enzymes and the test compound. The amount of the remaining test compound was determined by measuring the inhibitory action against β-lactamaseproduced by Proteus vulgaris GN4413 or Enterobacter cloacae TN1282 by the method described in Journal of Antibiotics, 34, 212-217 (1981).

≈ marks a conversion by molar mass, not a printed value.

Take `O=C(O)C1=C(Sc2ncccn2)C[C@@H]2[C@H](C3(O)CCS(=O)(=O)C3)C(=O)N12` (stereo partly drawn) [2 (b), sodium 5,6-cis-3-(2-pyrimidinylthio)-6-(1-hydroxy-3-thiacyclopentyl-3,3-dioxido)-7-oxo-1-azabicyclo[3.2.0]hept-2-ene-2-carboxylate]: the MIC stood at 0.78 µg/mL in data set [1], 3.13 µg/mL in data set [2], 6.25 µg/mL in data set [3] and 6.25 µg/mL in data set [4]. In data set [5], the half-life is greater than 2 h.

`CC(=O)NCCSC1=C(C(=O)O)N2C(=O)[C@@H](C(O)CS(C)(=O)=O)[C@H]2C1` (stereo partly drawn) [12 (b), sodium 5,6-cis-3-(2-acetamidoethylthio)-6-(1-hydroxy-2-methylsulfonylethyl)-7-oxo-1-azabicyclo[3.2.0]hept-2-ene-2-carboxylate]: the MIC in data set [1] is 1.56 µg/mL; in data set [2] it was 0.39 µg/mL; in data set [3] it was 3.13 µg/mL; in data set [4] it was 1.56 µg/mL. Besides, the half-life in data set [5] was greater than 2 h.

In the case of `CC(=O)N/C=C/SC1=C(C(=O)O)N2C(=O)[C@@H](C3(O)CCS(=O)(=O)C3)[C@H]2C1` (stereo partly drawn) [13 (b), sodium 5,6-cis-3-[(E)-2-acetamidovinylthio]-6-(1-hydroxy-3-thiacyclopentyl-3,3-dioxido)-7-oxo-1-azabicyclo[3.2.0]hept-2-ene-2-carboxylate], the MIC in data set [1] came out at 1.56 µg/mL; in data set [2] it was 0.39 µg/mL; in data set [3], 1.56 µg/mL; in data set [4], 0.78 µg/mL. Besides, the half-life in data set [5] is greater than 2 h.

Take `CCS(=O)(=O)CC(O)C1C(=O)N2C(C(=O)O)=C(SCCNC(C)=O)CC12` (stereo not drawn) [15 (b)]: the MIC in data set [1] was found to be 6.25 µg/mL (≈ 15.4 µM); in data set [2], 0.2 µg/mL (≈ 0.492 µM); in data set [3], 3.13 µg/mL (≈ 7.7 µM); in data set [4], 3.13 µg/mL (≈ 7.7 µM). For the same compound, the half-life in data set [5] was greater than 2 h.

With `CC(=O)NCCSC1=C(C(=O)O)N2C(=O)C(C(O)CS(=O)(=O)c3ccccc3)C2C1` (stereo not drawn) [20 (b)], the MIC in data set [1] amounted to 1.59 µg/mL (≈ 3.5 µM); in data set [2], 0.39 µg/mL (≈ 0.858 µM); in data set [3], 1.56 µg/mL (≈ 3.43 µM); in data set [4] it was 3.13 µg/mL (≈ 6.89 µM). For the same compound, in data set [5], the half-life was greater than 2 h.

For the compound `CC(=O)NCCSC1=C(C(=O)O)N2C(=O)[C@@H](C3(O)CCS(=O)(=O)C3)[C@H]2C1` (stereo partly drawn) [Example 1 (c), Sodium 5,6-cis-3-(2-acetamidoethylthio)-6-(1-hydroxy-3-thiacyclopentyl-3,3-dioxido)-7-oxo-1-azabicyclo-[3.2.0]hept-2-ene-2-carboxylate], the MIC was determined as 3.13 µg/mL in data set [1], 0.39 µg/mL in data set [2], 3.13 µg/mL in data set [3] and 3.13 µg/mL in data set [4]. Moreover, the half-life in data set [5] was greater than 2 h.

The record behind these values is US4698339A, “Carbapenems, their production and use” (Takeda Chemical Industries, Ltd., priority 1983, dated 1987).
